Each compound was assayed against BRD4 (Homo sapiens, UniProt O60885) (assay: Time Resolved Fluorescence Resonance Energy Transfer (TR-FRET) binding assay, BRD4). Conditions: one of the FRET assays described; read-out: FRET BRD4 IC50.
In the case of `Cc1nnn(C)c1-c1cnc2c3c(NS(C)(=O)=O)ccc(S(C)(=O)=O)c3n([C@H](c3ccccc3)C3CCOCC3)c2c1` [Example 216, N-[3-(dimethyl-1H-1,2,3-triazol-5-yl)-6-methanesulfonyl-5-[(S)-oxan-4-yl(phenyl)methyl]-5H-pyrido[3,2-b]indol-9-yl]methanesulfonamide], the IC50 is reported as less than 5 nM. For `Cc1nnn(C)c1-c1cnc2c3c(NS(=O)(=O)C4CC4)ccc(S(C)(=O)=O)c3n([C@H](c3ccccc3)C3CCOCC3)c2c1` [Example 218], the IC50 was less than 5 nM. Compound `[2H]C([2H])([2H])c1nnn(C)c1-c1cnc2c3c(F)ccc(S(C)(=O)=O)c3n([C@H](c3ccccc3)C3CCOCC3)c2c1` [Example 221, 5-{9-Fluoro-6-methanesulfonyl-5-[(S)-oxan-4-yl(phenyl)methyl]-5H-pyrido[3,2-b]indol-3-yl}-4-(^2H3)methyl-1-methyl-1H-1,2,3-triazole] has an IC50 of less than 5 nM. Compound `[2H]C([2H])([2H])c1nnn(C)c1-c1cnc2c3c(NS(=O)(=O)C4CC4)ccc(S(C)(=O)=O)c3n([C@H](c3ccccc3)C3CCOCC3)c2c1` [Example 222, N-{6-Methanesulfonyl-3-[4-(^2H3)methyl-1-methyl-1H-1,2,3-triazol-5-yl]-5-[(S)-oxan-4-yl(phenyl)methyl]-5H-pyrido[3,2-b]indol-9-yl}cyclopropanesulfonamide] has an IC50 of less than 5 nM. Work on `[2H]C([2H])([2H])c1nnn(C)c1-c1cnc2c3c(NCCCC(=O)O)ccc(S(C)(=O)=O)c3n([C@H](c3ccccc3)C3CCOCC3)c2c1` [Example 225, 4-({6-Methanesulfonyl-3-[4-(^2H3)methyl-1-methyl-1H-1,2,3-triazol-5-yl]-5-[(S)-oxan-4-yl(phenyl)methyl]-5H-pyrido[3,2-b]indol-9-yl}amino)butanoic acid] yielded an IC50 of less than 25 nM. `[2H]C([2H])([2H])c1nnn(C)c1-c1cnc2c3c(NCC(C)(C)N)ccc(S(C)(=O)=O)c3n([C@H](c3ccccc3)C3CCOCC3)c2c1` [Example 226, N-(2-Amino-2-methylpropyl)-6-methanesulfonyl-3-[4-(^2H3)methyl-1-methyl-1H-1,2,3-triazol-5-yl]-5-[(S)-oxan-4-yl(phenyl)methyl]-5H-pyrido[3,2-b]indol-9-amine] was tested, and the IC50 was less than 5 nM. Work on `[2H]C([2H])([2H])c1nnn(C)c1-c1cnc2c3c(N)ccc(S(C)(=O)=O)c3n([C@H](c3ccccc3)C3CCOCC3)c2c1` [Example 227, 6-Methanesulfonyl-3-[4-(^2H3)methyl-1-methyl-1H-1,2,3-triazol-5-yl]-5-[(S)-oxan-4-yl(phenyl)methyl]-5H-pyrido[3,2-b]indol-9-amine] yielded an IC50 of less than 5 nM. Compound `[2H]C([2H])([2H])c1nnn(C)c1-c1cnc2c3c(NS(=O)(=O)CC(F)(F)F)ccc(S(C)(=O)=O)c3n([C@H](c3ccccc3)C3CCOCC3)c2c1` [Example 228, 2,2,2-Trifluoro-N-{6-methanesulfonyl-3-[4-(^2H3)methyl-1-methyl-1H-1,2,3-triazol-5-yl]-5-[(S)-oxan-4-yl(phenyl)methyl]-5H-pyrido[3,2-b]indol-9-yl}ethane-1-sulfonamide] has an IC50 of less than 5 nM. With `[2H]C([2H])([2H])c1nnn(C)c1-c1cnc2c3c(OCC(F)F)ccc(S(C)(=O)=O)c3n([C@H](c3ccccc3)C3CCOCC3)c2c1` [Example 229, 5-[9-(2,2-Difluoroethoxy)-6-methanesulfonyl-5-[(S)-oxan-4-yl(phenyl)methyl]-5H-pyrido[3,2-b]indol-3-yl]-4-(^2H3)methyl-1-methyl-1H-1,2,3-triazole] the IC50 was less than 5 nM. With `[2H]C([2H])([2H])c1nnn(C)c1-c1cnc2c3c(OCC(C)(F)F)ccc(S(C)(=O)=O)c3n([C@H](c3ccccc3)C3CCOCC3)c2c1` [Example 230, 5-[9-(2,2-Difluoropropoxy)-6-methanesulfonyl-5-[(S)-oxan-4-yl(phenyl)methyl]-5H-pyrido[3,2-b]indol-3-yl]-4-(^2H3)methyl-1-methyl-1H-1,2,3-triazole] the IC50 was less than 5 nM. For `[2H]C([2H])([2H])c1nnn(C)c1-c1cnc2c3c(F)ccc(S(C)(=O)=O)c3n([C@H](c3ccccc3F)C3CCOCC3)c2c1` [Example 231, 5-{9-Fluoro-5-[(S)-(2-fluorophenyl)(oxan-4-yl)methyl]-6-methanesulfonyl-5H-pyrido[3,2-b]indol-3-yl}-4-(^2H3)methyl-1-methyl-1H-1,2,3-triazole], the IC50 was less than 5 nM. `[2H]C([2H])([2H])c1nnn(C)c1-c1cnc2c3c(F)ccc(S(C)(=O)=O)c3n([C@H](c3ccc(F)cc3)C3CCOCC3)c2c1` [Example 233, 5-{9-Fluoro-5-[(S)-(4-fluorophenyl)(oxan-4-yl)methyl]-6-methanesulfonyl-5H-pyrido[3,2-b]indol-3-yl}-4-(^2H3)methyl-1-methyl-1H-1,2,3-triazole] was tested, and the IC50 was less than 5 nM. With `[2H]C([2H])([2H])c1nnn(C)c1-c1cnc2c3c(F)ccc(S(C)(=O)=O)c3n(C(c3ncccc3F)C3CCOCC3)c2c1` (stereo not shown) [Example 235, 3-Fluoro-2-({9-fluoro-6-methanesulfonyl-3-[4-(^2H3)methyl-1-methyl-1H-1,2,3-triazol-5-yl]-5H-pyrido[3,2-b]indol-5-yl}(oxan-4-yl)methyl)pyridine] the IC50 was less than 5 nM. `[2H]C([2H])([2H])c1nnn(C)c1-c1cnc2c3c(F)ccc(S(C)(=O)=O)c3n(C(c3ncccc3F)C3CCOCC3)c2c1` (stereo not shown) [Example 236, 3-Fluoro-2-({9-fluoro-6-methanesulfonyl-3-[4-(^2H3)methyl-1-methyl-1H-1,2,3-triazol-5-yl]-5H-pyrido[3,2-b]indol-5-yl}(oxan-4-yl)methyl)pyridine] gave an IC50 of less than 1500 nM. For `[2H]C([2H])([2H])c1nnn(C)c1-c1cnc2c3ccc(S(C)(=O)=O)cc3n(C(c3ncccc3F)C3CCC(F)(F)CC3)c2c1` (stereo not shown) [Example 239, 2-[(4,4-Difluorocyclohexyl)({7-methanesulfonyl-3-[4-(^2H3)methyl-1-methyl-1H-1,2,3-triazol-5-yl]-5H-pyrido[3,2-b]indol-5-yl})methyl]-3-fluoropyridine], the IC50 was less than 5 nM. `[2H]C([2H])([2H])c1nnn(C)c1-c1cnc2c3ccc(S(C)(=O)=O)cc3n(C(c3ncccc3F)C3CCC(F)(F)CC3)c2c1` (stereo not shown) [Example 240, 2-[(4,4-Difluorocyclohexyl)({7-methanesulfonyl-3-[4-(^2H3)methyl-1-methyl-1H-1,2,3-triazol-5-yl]-5H-pyrido[3,2-b]indol-5-yl})methyl]-3-fluoropyridine] showed an IC50 of less than 5 nM. For `Cc1nnn(C)c1-c1cnc2c3ccc(C4(O)COC4)cc3n([C@H](c3ccc(F)cc3)C3CCOCC3)c2c1` [Example 243, 3-[3-(Dimethyl-1H-1,2,3-triazol-5-yl)-5-[(S)-(4-fluorophenyl)(oxan-4-yl)methyl]-5H-pyrido[3,2-b]indol-7-yl]oxetan-3-ol], the IC50 was less than 5 nM. With `Cc1noc(C)c1-c1cnc2c3ccc(C4(O)COC4)cc3n([C@H](c3ccccc3)C3CCOCC3)c2c1` [Example 244, 3-[3-(Dimethyl-1,2-oxazol-4-yl)-5-[(S)-oxan-4-yl(phenyl)methyl]-5H-pyrido[3,2-b]indol-7-yl]oxetan-3-ol] the IC50 was less than 5 nM. In the case of `[2H]C([2H])([2H])c1nnn(C)c1-c1cnc2c3c(OCC(F)F)ccc(S(C)(=O)=O)c3n(C(c3ncccc3F)C3CCOCC3)c2c1` (stereo not shown) [Example 245, 2-{[9-(2,2-Difluoroethoxy)-6-methanesulfonyl-3-[4-(^2H3)methyl-1-methyl-1H-1,2,3-triazol-5-yl]-5H-pyrido[3,2-b]indol-5-yl](oxan-4-yl)methyl}-3-fluoropyridine], the IC50 is reported as less than 5 nM.

From patent US10112941B2, “Tricyclic compounds as anticancer agents” (BRISTOL-MYERS SQUIBB COMPANY, priority 2013, dated 2018)
